Key:
Assay in all cases: relative viability (nuclei count vs DMSO), 5 days (fraction); higher = more cells survive
[1] = compound: NC(=O)c1ccc(N(C(N)=O)c2c(F)cccc2F)nc1-c1ccc(F)cc1F [VX-702] + COc1cc2c(Oc3ccc(NC(=O)C4(C(=O)Nc5ccc(F)cc5)CC4)cc3F)ccnc2cc1OCCCN1CCOCC1 [Foretinib] (partner 0.25 µM)
Outline: (§1)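 Relative viability was taken as the ratio of nuclei in treated wells to nuclei in vehicle wells. Lung cancer cell lines in 1536-well plates received compounds by pin tool one day after seeding, either one drug alone or a fixed anchor-drug dose plus five library-drug doses (not always all listed) in √10 steps. Nuclei were counted on 4× images after 5 days of treatment, and values are medians of duplicate plates.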

[2] = compound: NC(=O)c1ccc(N(C(N)=O)c2c(F)cccc2F)nc1-c1ccc(F)cc1F [VX-702] + C[C@]1(O)C[C@@H](c2nc(-c3ccc4ccc(-c5ccccc5)nc4c3)c3c(N)nccn32)C1 [Linsitinib] (partner 1 µM)
Outline: as §1

[3] = compound: CC(C)(C)c1nc(-c2cccc(NS(=O)(=O)c3c(F)cccc3F)c2F)c(-c2ccnc(N)n2)s1 [Dabrafenib] + Cc1cc(Nc2cc(N3CCN(C)CC3)nc(Sc3ccc(NC(=O)C4CC4)cc3)n2)n[nH]1 [Tozasertib] (partner 0.1 µM)
Outline: as §1

[4] = compound: NC(=O)c1ccc(N(C(N)=O)c2c(F)cccc2F)nc1-c1ccc(F)cc1F [VX-702] + CC(C)C[C@H](NC(=O)[C@H](Cc1ccccc1)NC(=O)c1cnccn1)B(O)O [Bortezomib] (partner 0.002 µM)
Outline: as §1

Cell Line | relative viability ([1]; first compound 0.02 µM) | relative viability ([1]; first compound 0.2 µM) | relative viability ([1]; first compound 0.6325 µM) | relative viability ([1]; first compound 2 µM) | relative viability ([2]; first compound 0.02 µM) | relative viability ([2]; first compound 0.2 µM) | relative viability ([2]; first compound 0.6325 µM) | relative viability ([2]; first compound 2 µM) | relative viability ([3]; first compound 0.003 µM) | relative viability ([3]; first compound 0.009487 µM) | relative viability ([3]; first compound 0.03 µM) | relative viability ([3]; first compound 0.09487 µM) | relative viability ([3]; first compound 0.3 µM) | relative viability ([4]; first compound 0.02 µM) | relative viability ([4]; first compound 0.2 µM) | relative viability ([4]; first compound 0.6325 µM) | relative viability ([4]; first compound 2 µM)
201T | 0.943 | 0.987 | 1.05 | 1.07 | 0.958 | 1.03 | 0.986 | 0.987 | 1.02 | 0.915 | 0.918 | 0.912 | 1.04 | 1.13 | 1.07 | 1.17 | 1.17
A549 | 1.02 | 0.975 | 0.92 | 1.07 | 0.502 | 0.579 | 0.57 | 0.563 | – | – | – | – | – | – | – | – | –
A-427 | 1.06 | 1.03 | 0.97 | 1.08 | 1.1 | 1.05 | 1.17 | 1.17 | – | 0.202 | 0.187 | 0.196 | 0.209 | 0.984 | 0.947 | 0.988 | 1.05
ABC-1 | 1.24 | 0.968 | 0.859 | 1.33 | 0.661 | – | 0.925 | 1.16 | 0.215 | 0.244 | 0.206 | 0.132 | 0.174 | 0.35 | – | 0.26 | 0.329
BEN | 0.73 | 0.556 | 0.57 | 0.876 | 0.828 | 0.798 | 0.967 | 0.852 | – | 0.563 | – | 0.412 | 0.501 | 0.823 | 0.545 | 0.658 | 0.922
CAL-12T | 1.05 | 1.09 | 1.01 | 1.28 | 0.815 | 0.898 | 0.722 | 0.881 | 0.377 | 0.424 | 0.423 | 0.328 | 0.349 | 1.02 | 0.928 | 0.885 | 1.06
COR-L23 | 1.04 | 1 | 0.995 | 1.38 | 1.09 | 1.06 | 0.959 | 1.26 | 0.174 | 0.221 | 0.201 | 0.205 | 0.19 | 1.08 | 1.02 | 1.15 | 1.21
COR-L 105 | 1.02 | 0.838 | 1.14 | 1.3 | 0.965 | 0.916 | 0.956 | 1.4 | 0.332 | 0.415 | 0.362 | 0.347 | 0.395 | 0.957 | 0.888 | 0.907 | 0.54
Calu-6 | 0.975 | 0.902 | 0.896 | 0.971 | – | 0.967 | 1.09 | 1.02 | – | – | – | – | – | 1.04 | 1.12 | 1.24 | 1.16
ChaGo-K-1 | 0.867 | 0.892 | 0.893 | 0.901 | – | – | – | – | 0.219 | 0.223 | 0.225 | 0.194 | 0.239 | 0.911 | 0.861 | 1.06 | 1.22
EBC-1 | 0.107 | 0.111 | 0.0889 | 0.0899 | 1.07 | 0.935 | 0.914 | 0.993 | – | – | – | – | – | 0.622 | 0.545 | 0.587 | 0.603
